Where two headings read alike, the source gives them in different places.
Legend:
[1] = Intrinsic reactivity of the inhibitors (kchem) with βME measured with HPLC; assay type: physicochemical; details: 1 mM inhibitor + 600 mM βME, n = 3
p110α (PI3Kα) = p110α (PI3Kα) (Homo sapiens, UniProt P42336); test: Determination of kinetic constants (kinact, Ki) for p110α by LanthaScreen Technology; assay type: binding; details: for kinact: read-out: kinact PI3Kα; for kinact/KI: read-out: kinact/Ki PI3Kα
Method: Maximum potential rate of covalent bond formation (kinact) and dissociation constant of the first reversible binding (Ki) of compounds for p110α were determined by LanthaScreen Technology (Life Technologies). The calculation of kinetic parameters was carried out through global fitting for numerical integration by using KinTek Global Kinetic Explorer modelling software^26-31.

[2] = tested on: pSer473 of PKB/Akt in SKOV3 cells; test: In Cell Western cellular PI3K signaling and IC50 determination; assay type: cell-based; details: Homo sapiens
Method: Protein phosphorylation was detected as follows: pSer473 of PKB/Akt with rabbit polyclonal antibody from Cell Signaling Technology (CST) (#4058) by In-Cell Western assays, where 1.2×10^4 SKOV3 cells/well in 96-well plates were plated (Cell Carrier, PerkinElmer) for 24 hours (37° C., 5% CO2), as described in Ref. ^25.

[3] = dissociation constant of the first reversible binding, global fitting with KinTek, read-out: Ki PI3Kα
[4] = maximum potential rate of covalent bond formation, global fitting with KinTek
[5] = SK-OV-3, SKOV3 cells, 2 or 3 independent measurements, read-out: IC50 pPKB (S473) SKOV3
[6] = Ki value determined after 60 min of drug incubation with PI3Kα, 2 independent measurements, read-out: Ki PI3Kα (footnote d)
[7] = SK-OV-3, read-out: IC50 pPKB (S473) SKOV3

Sequence of p110α (PI3Kα) (P42336 whole entry): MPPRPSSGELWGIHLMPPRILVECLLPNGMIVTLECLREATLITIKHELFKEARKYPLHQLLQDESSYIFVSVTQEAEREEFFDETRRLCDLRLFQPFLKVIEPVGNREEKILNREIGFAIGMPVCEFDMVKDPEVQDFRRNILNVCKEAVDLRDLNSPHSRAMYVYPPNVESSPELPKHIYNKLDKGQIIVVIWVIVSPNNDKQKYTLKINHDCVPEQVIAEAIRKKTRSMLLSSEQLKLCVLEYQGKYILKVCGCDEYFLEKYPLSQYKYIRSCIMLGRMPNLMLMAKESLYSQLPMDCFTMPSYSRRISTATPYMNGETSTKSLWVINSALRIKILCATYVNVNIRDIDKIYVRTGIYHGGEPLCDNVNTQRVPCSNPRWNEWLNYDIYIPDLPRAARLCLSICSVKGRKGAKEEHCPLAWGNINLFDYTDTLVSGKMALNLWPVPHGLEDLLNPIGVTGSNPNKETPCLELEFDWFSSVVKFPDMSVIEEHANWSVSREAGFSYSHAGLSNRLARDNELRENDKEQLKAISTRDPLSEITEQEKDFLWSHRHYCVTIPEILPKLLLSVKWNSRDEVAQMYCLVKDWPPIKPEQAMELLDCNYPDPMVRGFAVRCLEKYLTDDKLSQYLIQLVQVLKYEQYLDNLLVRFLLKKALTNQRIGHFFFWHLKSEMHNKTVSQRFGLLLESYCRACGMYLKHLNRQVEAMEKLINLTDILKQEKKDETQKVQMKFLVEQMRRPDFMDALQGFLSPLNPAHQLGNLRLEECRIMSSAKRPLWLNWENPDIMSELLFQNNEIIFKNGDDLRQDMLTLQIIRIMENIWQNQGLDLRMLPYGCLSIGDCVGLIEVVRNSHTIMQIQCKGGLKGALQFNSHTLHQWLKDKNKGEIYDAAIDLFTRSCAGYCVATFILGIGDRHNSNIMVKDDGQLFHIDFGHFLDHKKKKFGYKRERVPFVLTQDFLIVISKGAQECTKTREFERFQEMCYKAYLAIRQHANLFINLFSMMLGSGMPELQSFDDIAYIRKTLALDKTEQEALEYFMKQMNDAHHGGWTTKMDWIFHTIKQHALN
Sequence of p110α (PI3Kα) (P27986 whole entry partner): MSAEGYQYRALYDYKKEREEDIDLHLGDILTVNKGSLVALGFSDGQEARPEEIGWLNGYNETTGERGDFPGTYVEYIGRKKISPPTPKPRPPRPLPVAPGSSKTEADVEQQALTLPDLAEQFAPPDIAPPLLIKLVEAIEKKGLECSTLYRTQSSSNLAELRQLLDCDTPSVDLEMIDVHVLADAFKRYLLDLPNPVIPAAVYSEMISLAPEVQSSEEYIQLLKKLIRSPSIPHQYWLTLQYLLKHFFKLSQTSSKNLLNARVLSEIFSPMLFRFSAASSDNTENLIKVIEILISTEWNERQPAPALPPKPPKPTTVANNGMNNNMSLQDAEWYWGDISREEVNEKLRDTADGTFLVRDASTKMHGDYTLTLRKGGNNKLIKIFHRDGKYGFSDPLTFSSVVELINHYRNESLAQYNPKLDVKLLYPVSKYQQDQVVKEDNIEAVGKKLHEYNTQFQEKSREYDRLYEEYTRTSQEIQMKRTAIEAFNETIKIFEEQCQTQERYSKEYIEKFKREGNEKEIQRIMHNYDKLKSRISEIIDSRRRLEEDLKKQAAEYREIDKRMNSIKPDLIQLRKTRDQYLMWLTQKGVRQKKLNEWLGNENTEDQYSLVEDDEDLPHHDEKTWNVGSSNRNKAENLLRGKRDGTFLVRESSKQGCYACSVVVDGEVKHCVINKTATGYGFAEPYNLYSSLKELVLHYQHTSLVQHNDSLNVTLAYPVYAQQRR

Row | Compound | kchem (intrinsic reactivity of the inhibitors) [1] | Ki (p110α (PI3Kα); [3]) [nM] | kinact (p110α (PI3Kα); [4]) [s⁻¹] | kinact/KI (p110α (PI3Kα)) [M⁻¹ s⁻¹] | IC50 [2, 5] [nM] | Ki (p110α (PI3Kα); [6]) [nM] | IC50 [2, 7] [nM] | kinact (p110α (PI3Kα)) [s⁻¹]
1 | CC(C)=CC(=O)NCCCC(=O)N1CCN(c2nc(-c3cnc(N)nc3C(F)F)nc(N3CCOCC3)n2)CC1 [Compound 17, N-(4-(4-(4-(2-amino-4-(difluoromethyl)pyrimidin-5-yl)-6-morpholino-1,3,5-triazin-2-yl)piperazin-1-yl)-4-oxobutyl)-3-methylbut-2-enamide] | <<1.00 × 10^−7 M^−1 · s^−1 |  |  |  |  |  |  | 
2 | C=CC(=O)N1CCC(CC(=O)N2CCN(c3nc(-c4cnc(N)nc4C(F)F)nc(N4CCOCC4)n3)CC2)CC1 [Compound 35, 1-(4-(2-(4-(4-(2-amino-4-(difluoromethyl)pyrimidin-5-yl)-6-morpholino-1,3,5-triazin-2-yl)piperazin-1-yl)-2-oxoethyl)piperidin-1-yl)prop-2-en-1-one] | 0.000249 M⁻¹ s⁻¹ | 10.8 | 9.84e-05 | 9290 | 47 |  |  | 
3 | CC(C)=CC(=O)CCCCCC(=O)N1CCN(c2nc(-c3cnc(N)nc3C(F)F)nc(N3CCOCC3)n2)CC1 [Compound 24, 1-(4-(4-(2-amino-4-(difluoromethyl)pyrimidin-5-yl)-6-morpholino-1,3,5-triazin-2-yl)piperazin-1-yl)-9-methyldec-8-ene-1,7-dione] | 0.000173 M⁻¹ s⁻¹ |  |  |  | 89.2 |  |  | 
4 | CC(C)=CC(=O)CCCC(=O)N1CCN(c2nc(-c3cnc(N)nc3C(F)F)nc(N3CCOCC3)n2)CC1 [Compound 23, 1-(4-(4-(2-amino-4-(difluoromethyl)pyrimidin-5-yl)-6-morpholino-1,3,5-triazin-2-yl)piperazin-1-yl)-7-methyloct-6-ene-1,5-dione] | 0.000224 M⁻¹ s⁻¹ | 8.06 | 2.56e-05 | 3210 |  |  |  | 
5 | C/C=C/C(=O)N(C)CCCC(=O)N1CCN(c2nc(-c3cnc(N)nc3C(F)F)nc(N3CCOCC3)n2)CC1 [Compound 9, (E)-N-(4-(4-(4-(2-amino-4-(difluoromethyl)pyrimidin-5-yl)-6-morpholino-1,3,5-triazin-2-yl)piperazin-1-yl)-4-oxobutyl)-N-methylbut-2-enamide] | 3.35e-06 M⁻¹ s⁻¹ |  |  |  |  | 5.4 |  | 
6 | C=CC(=O)N1CCC(C(=O)N2CCN(c3nc(-c4cnc(N)nc4C(F)F)nc(N4CCOCC4)n3)CC2)CC1 [Compound 28, 1-(4-(4-(4-(2-amino-4-(difluoromethyl)pyrimidin-5-yl)-6-morpholino-1,3,5-triazin-2-yl)piperazine-1-carbonyl)piperidin-1-yl)prop-2-en-1-one] | 0.00041 M⁻¹ s⁻¹ | 10.8 | 5.77e-05 | 5390 | 51 |  |  | 
7 | C/C=C/C(=O)CCCC(=O)N1CCN(c2nc(-c3cnc(N)nc3C(F)F)nc(N3CCOCC3)n2)CC1 [Compound 20, (E)-1-(4-(4-(2-amino-4-(difluoromethyl)pyrimidin-5-yl)-6-morpholino-1,3,5-triazin-2-yl)piperazin-1-yl)oct-6-ene-1,5-dione] | 0.0806 M⁻¹ s⁻¹ | 6.69 | 0.00121 | 183000 | 38.8 |  |  | 
8 | C=CC(=O)CCCCC(=O)N1CCN(c2nc(-c3cnc(N)nc3C(F)F)nc(N3CCOCC3)n2)CC1 [Compound 1, 1-(4-(4-(2-amino-4-(difluoromethyl)pyrimidin-5-yl)-6-morpholino-1,3,5-triazin-2-yl)piperazin-1-yl)oct-7-ene-1,6-dione] | >>1.00 × 10^−1 M^−1 · s^−1 | 5.87 | 0.0245 | 4.2e+06 |  |  |  | 
9 | C/C=C/C(=O)CCC(=O)N1CCN(c2nc(-c3cnc(N)nc3C(F)F)nc(N3CCOCC3)n2)CC1 [Compound 19, (E)-1-(4-(4-(2-amino-4-(difluoromethyl)pyrimidin-5-yl)-6-morpholino-1,3,5-triazin-2-yl)piperazin-1-yl)hept-5-ene-1,4-dione] | 0.0484 M⁻¹ s⁻¹ | 1.51 | 0.0002 | 130000 | 20 |  |  | 
10 | C=CC(=O)N1CCC(CCC(=O)N2CCN(c3nc(-c4cnc(N)nc4C(F)F)nc(N4CCOCC4)n3)CC2)CC1 [Compound 40, 1-(4-(3-(4-(4-(2-amino-4-(difluoromethyl)pyrimidin-5-yl)-6-morpholino-1,3,5-triazin-2-yl)piperazin-1-yl)-3-oxopropyl)piperidin-1-yl)prop-2-en-1-one] | 0.000307 M⁻¹ s⁻¹ | 8.56 | 0.000292 | 34300 | 48 |  |  | 
11 | CC(C)=CC(=O)CCC(=O)N1CCN(c2nc(-c3cnc(N)nc3C(F)F)nc(N3CCOCC3)n2)CC1 [Compound 22, 1-(4-(4-(2-amino-4-(difluoromethyl)pyrimidin-5-yl)-6-morpholino-1,3,5-triazin-2-yl)piperazin-1-yl)-6-methylhept-5-ene-1,4-dione] | 0.000188 M⁻¹ s⁻¹ |  | 1.13e-05 |  |  |  |  | 
12 | C/C=C/C(=O)CCCCC(=O)N1CCN(c2nc(-c3cnc(N)nc3C(F)F)nc(N3CCOCC3)n2)CC1 [Compound 2, (E)-1-(4-(4-(2-amino-4-(difluoromethyl)pyrimidin-5-yl)-6-morpholino-1,3,5-triazin-2-yl)piperazin-1-yl)non-7-ene-1,6-dione] | 0.0857 M⁻¹ s⁻¹ | 5.76 | 0.00392 | 693000 | 46.9 |  |  | 
13 | C=CC(=O)N1CCC(Cc2ccc(C(=O)N3CCN(c4nc(-c5cnc(N)nc5C(F)F)nc(N5CCOCC5)n4)CC3)cc2)CC1 [Compound 100, 1-(4-(4-(4-(4-(2-amino-4-(difluoromethyl)pyrimidin-5-yl)-6-morpholino-1,3,5-triazin-2-yl)piperazine-1-carbonyl)benzyl)piperidin-1-yl)prop-2-en-1-one] | 0.000324 M⁻¹ s⁻¹ | 9.11 | 0.000123 | 13700 | 56 |  |  | 
14 | C=CC(=O)NCCCC(=O)N1CCN(c2nc(-c3cnc(N)nc3C(F)F)nc(N3CCOCC3)n2)CC1 [Compound 13, N-(4-(4-(4-(2-amino-4-(difluoromethyl)pyrimidin-5-yl)-6-morpholino-1,3,5-triazin-2-yl)piperazin-1-yl)-4-oxobutyl)acrylamide] | 0.000138 M⁻¹ s⁻¹ | 5.36 | 7.6e-05 | 14200 |  |  |  | 
15 | C=CC(=O)N1CCC(C(=O)NCC(=O)N2CCN(c3nc(-c4cnc(N)nc4C(F)F)nc(N4CCOCC4)n3)CC2)CC1 [Compound 43, 1-acryloyl-N-(2-(4-(4-(2-amino-4-(difluoromethyl)pyrimidin-5-yl)-6-morpholino-1,3,5-triazin-2-yl)piperazin-1-yl)-2-oxoethyl)piperidine-4-carboxamide] | 0.00037 M⁻¹ s⁻¹ |  |  |  |  |  | 82 | 
16 | C=CC(=O)N(C)CCCC(=O)N1CCN(c2nc(-c3cnc(N)nc3C(F)F)nc(N3CCOCC3)n2)CC1 [Compound 7, N-(4-(4-(4-(2-amino-4-(difluoromethyl)pyrimidin-5-yl)-6-morpholino-1,3,5-triazin-2-yl)piperazin-1-yl)-4-oxobutyl)-N-methylacrylamide] | 0.000228 M⁻¹ s⁻¹ | 7.22 |  | 9600 |  |  |  | 6.9e-05
17 | CC(C)=CC(=O)CCCCC(=O)N1CCN(c2nc(-c3cnc(N)nc3C(F)F)nc(N3CCOCC3)n2)CC1 [Compound 5, 1-(4-(4-(2-amino-4-(difluoromethyl)pyrimidin-5-yl)-6-morpholino-1,3,5-triazin-2-yl)piperazin-1-yl)-8-methylnon-7-ene-1,6-dione] | 0.00022 M⁻¹ s⁻¹ | 10.1 | 0.000187 | 18700 | 52.8 |  |  | 
18 | CN(C)C/C=C/C(=O)N1CCC(C(=O)N(C)CCC(=O)N2CCN(c3nc(-c4cnc(N)nc4C(F)F)nc(N4CCOCC4)n3)CC2)CC1 [Compound 58, (E)-N-(3-(4-(4-(2-amino-4-(difluoromethyl)pyrimidin-5-yl)-6-morpholino-1,3,5-triazin-2-yl)piperazin-1-yl)-3-oxopropyl)-1-(4-(dimethylamino)but-2-enoyl)-N-methylpiperidine-4-carboxamide] | 0.000386 M⁻¹ s⁻¹ | 12.2 | 0.000406 | 33600 | 260 |  |  | 
19 | C=CC(=O)N1CCC(C(=O)N(C)CC(=O)N2CCN(c3nc(-c4cnc(N)nc4C(F)F)nc(N4CCOCC4)n3)CC2)CC1 [Compound 54, 1-acryloyl-N-(2-(4-(4-(2-amino-4-(difluoromethyl)pyrimidin-5-yl)-6-morpholino-1,3,5-triazin-2-yl)piperazin-1-yl)-2-oxoethyl)-N-methylpiperidine-4-carboxamide] | 0.000354 M⁻¹ s⁻¹ |  |  |  |  |  | 86 | 
20 | CC(C)=CC(=O)N(C)CCCC(=O)N1CCN(c2nc(-c3cnc(N)nc3C(F)F)nc(N3CCOCC3)n2)CC1 [Compound 11, N-(4-(4-(4-(2-amino-4-(difluoromethyl)pyrimidin-5-yl)-6-morpholino-1,3,5-triazin-2-yl)piperazin-1-yl)-4-oxobutyl)-N,3-dimethylbut-2-enamide] | <<1.00 × 10^−7 M^−1 · s^−1 |  |  |  |  | 6.95 |  | 

Source: patent publication US20240217960A1, “TRIAZINE DERIVATIVE AS COVALENT INHIBITORS OF PI3K” (UNIVERSITÄT BASEL, priority 2021, published 2024)
